{
  "source": "ChEMBL document CHEMBL4706545",
  "about": "“Antiproliferative effect of mitochondria-targeting allobetulin 1,2,3-triazolium salt derivatives and their mechanism of inducing apoptosis of cancer cells” (Eur J Med Chem, 2020)",
  "key": {"[1]": {"test_system": "HepG2", "assay": "Cytotoxicity against human HepG2 cells assessed as reduction in cell viability incubated for 48 hrs by MTT assay", "assay_type": "functional, cell-based", "settings": "HepG2, 48 h"}, "[2]": {"test_system": "ECa-109 cell line", "assay": "Cytotoxicity against human ECa-109 cells assessed as reduction in cell viability incubated for 48 hrs by MTT assay", "assay_type": "functional, cell-based", "settings": "ECa-109, 48 h"}, "[3]": {"test_system": "SGC-7901", "assay": "Cytotoxicity against human SGC-7901 cells assessed as reduction in cell viability incubated for 48 hrs by MTT assay", "assay_type": "functional, cell-based", "settings": "SGC-7901, 48 h"}, "[4]": {"test_system": "HeLa", "assay": "Cytotoxicity against human HeLa cells assessed as reduction in cell viability incubated for 48 hrs by MTT assay", "assay_type": "functional, cell-based"}, "[5]": {"test_system": "L02", "assay": "Cytotoxicity against human HL7702 cells assessed as reduction in cell viability incubated for 48 hrs by MTT assay", "assay_type": "ADME, cell-based", "settings": "L02, 48 h"}, "[6]": {"test_system": "ECa-109 cell line", "assay": "Induction of ROS generation in human […] cells incubated for 48 hrs by DCFH-DA staining based fluorescence microscopic analysis", "assay_type": "functional", "settings": "dose 1-4 µM"}, "[7]": {"test_system": "ECa-109 cell line", "assay": "Induction of ROS-mediated apoptosis in human ECa-109 cells assessed as early apoptotic cells at 1 uM incubated for 48 hrs by annexin V-PE and 7-AAD staining based flow cytometry analysis (reference value: 2.70 %)", "assay_type": "functional"}, "[8]": {"test_system": "ECa-109 cell line", "assay": "Induction of ROS-mediated apoptosis in human ECa-109 cells assessed as viable cells at 1 uM incubated for 48 hrs in presence of NAC by annexin V-PE and 7-AAD staining based flow cytometry analysis (reference value: 94 %)", "assay_type": "functional", "settings": "read-out: Activity"}, "[9]": {"test_system": "ECa-109 cell line", "assay": "Induction of ROS-mediated apoptosis in human ECa-109 cells assessed as late apoptotic cells at 1 uM incubated for 48 hrs in presence of NAC by annexin V-PE and 7-AAD staining based flow cytometry analysis (reference value: 2.98 %)", "assay_type": "functional"}, "[10]": {"test_system": "ECa-109 cell line", "assay": "Induction of cell cycle arrest in human ECa-109 cells assessed as accumulation in G0/G1 phase at 1 uM incubated for 48 hrs by PI staining based flow cytometry analysis (reference value: 52.28 %)", "assay_type": "functional"}, "[11]": {"test_system": "ECa-109 cell line", "assay": "Induction of cell cycle arrest in human ECa-109 cells assessed as accumulation in S phase at 2 uM incubated for 48 hrs by PI staining based flow cytometry analysis (reference value: 39.33 %)", "assay_type": "functional"}, "[12]": {"test_system": "ECa-109 cell line", "assay": "Induction of cell cycle arrest in human ECa-109 cells assessed as accumulation in G0/G1 phase at 4 uM incubated for 48 hrs by PI staining based flow cytometry analysis (reference value: 52.28 %)", "assay_type": "functional"}, "[13]": {"test_system": "ECa-109 cell line", "assay": "Induction of apoptosis in human ECa-109 cells assessed as downregulation of Bcl-2 incubated for 48 hrs by Western blot analysis", "assay_type": "functional, cell-based", "settings": "dose 1-4 µM"}, "[14]": {"test_system": "ECa-109 cell line", "assay": "Induction of apoptosis in human ECa-109 cells assessed as nuclear fragmentation at 1 to 4 uM incubated for 48 hrs by Hoechst staining based fluorescence microscopic analysis", "assay_type": "functional, cell-based", "settings": "dose 1-4 µM"}, "[15]": {"assay": "Selectivity index, ratio of IC50 for cytotoxicity against human HL7702 cells to IC50 for cytotoxicity against human SGC-7901 cells"}, "[16]": {"test_system": "SGC-7901", "assay": "Induction of apoptosis in human SGC-7901 cells at 1 to 4 uM incubated for 48 hrs by AO/PI staining based fluorescence microscopic analysis", "assay_type": "functional, cell-based", "settings": "dose 1-4 µM"}, "[17]": {"test_system": "SGC-7901", "assay": "Induction of apoptosis in human SGC-7901 cells assessed as viable cells at 1 uM incubated for 48 hrs by annexin-V-FITC and PI staining based fluorescence microscopic analysis (reference value: 93.8 %)", "assay_type": "functional", "settings": "read-out: Activity"}, "[18]": {"test_system": "SGC-7901", "assay": "Induction of apoptosis in human SGC-7901 cells assessed as late apoptotic cells at 1 uM incubated for 48 hrs by annexin-V-FITC and PI staining based fluorescence microscopic analysis (reference value: 3.87 %)", "assay_type": "functional"}, "[19]": {"test_system": "SGC-7901", "assay": "Induction of apoptosis in human SGC-7901 cells assessed as viable cells at 2 uM incubated for 48 hrs by annexin-V-FITC and PI staining based fluorescence microscopic analysis (reference value: 93.8 %)", "assay_type": "functional", "settings": "read-out: Activity"}, "[20]": {"test_system": "SGC-7901", "assay": "Induction of apoptosis in human SGC-7901 cells assessed as necrotic cells at 4 uM incubated for 48 hrs by annexin-V-FITC and PI staining based fluorescence microscopic analysis (reference value: 1.03 %)", "assay_type": "functional"}, "[21]": {"test_system": "SGC-7901", "assay": "Induction of ROS-mediated apoptosis in human SGC-7901 cells assessed as viable cells at 1 uM incubated for 48 hrs by annexin V-PE and 7-AAD staining based flow cytometry analysis (reference value: 93.6 %)", "assay_type": "functional", "settings": "read-out: Activity"}, "[22]": {"test_system": "SGC-7901", "assay": "Induction of ROS-mediated apoptosis in human SGC-7901 cells assessed as early apoptotic cells at 1 uM incubated for 48 hrs by annexin V-PE and 7-AAD staining based flow cytometry analysis (reference value: 1.89 %)", "assay_type": "functional"}, "[23]": {"test_system": "SGC-7901", "assay": "Induction of ROS-mediated apoptosis in human SGC-7901 cells assessed as viable cells at 2 uM incubated for 48 hrs by annexin V-PE and 7-AAD staining based flow cytometry analysis (reference value: 93.6 %)", "assay_type": "functional", "settings": "read-out: Activity"}, "[24]": {"test_system": "SGC-7901", "assay": "Induction of ROS-mediated apoptosis in human SGC-7901 cells assessed as early apoptotic cells at 4 uM incubated for 48 hrs by annexin V-PE and 7-AAD staining based flow cytometry analysis (reference value: 1.89 %)", "assay_type": "functional"}, "[25]": {"test_system": "SGC-7901", "assay": "Induction of ROS-mediated apoptosis in human SGC-7901 cells assessed as early apoptotic cells at 1 uM incubated for 48 hrs in presence of NAC by annexin V-PE and 7-AAD staining based flow cytometry analysis (reference value: 1.15 %)", "assay_type": "functional"}, "[26]": {"test_system": "SGC-7901", "assay": "Induction of ROS-mediated apoptosis in human SGC-7901 cells assessed as viable cells at 2 uM incubated for 48 hrs in presence of NAC by annexin V-PE and 7-AAD staining based flow cytometry analysis (reference value: 94.8 %)", "assay_type": "functional", "settings": "read-out: Activity"}, "[27]": {"test_system": "SGC-7901", "assay": "Induction of ROS-mediated apoptosis in human SGC-7901 cells assessed as viable cells at 4 uM incubated for 48 hrs in presence of NAC by annexin V-PE and 7-AAD staining based flow cytometry analysis (reference value: 94.8 %)", "assay_type": "functional", "settings": "read-out: Activity"}, "[28]": {"test_system": "SGC-7901", "assay": "Induction of cell cycle arrest in human SGC-7901 cells assessed as accumulation in G0/G1 phase at 1 uM incubated for 48 hrs by PI staining based flow cytometry analysis (reference value: 57.39 %)", "assay_type": "functional"}, "[29]": {"test_system": "SGC-7901", "assay": "Induction of cell cycle arrest in human SGC-7901 cells assessed as accumulation in G2/M phase at 1 uM incubated for 48 hrs by PI staining based flow cytometry analysis (reference value: 11.48 %)", "assay_type": "functional"}, "[30]": {"test_system": "SGC-7901", "assay": "Induction of cell cycle arrest in human SGC-7901 cells assessed as accumulation in G2/M phase at 2 uM incubated for 48 hrs by PI staining based flow cytometry analysis (reference value: 11.48 %)", "assay_type": "functional"}, "[31]": {"test_system": "SGC-7901", "assay": "Induction of cell cycle arrest in human SGC-7901 cells assessed as accumulation in G2/M phase at 4 uM incubated for 48 hrs by PI staining based flow cytometry analysis (reference value: 11.48 %)", "assay_type": "functional"}, "[32]": {"test_system": "SGC-7901", "assay": "Induction of apoptosis in human SGC-7901 cells assessed as decrease in caspase-8 incubated for 48 hrs by Western blot analysis", "assay_type": "functional, cell-based", "settings": "dose 1-4 µM"}, "[33]": {"test_system": "SGC-7901", "assay": "Induction of apoptosis in human SGC-7901 cells assessed as decrease in caspase-9 incubated for 48 hrs by Western blot analysis", "assay_type": "functional, cell-based", "settings": "dose 1-4 µM"}},
  "note": "Calls of active or inactive are those of the source. The rule behind the calls is not given here.",
  "data": [
    {"smiles": "COc1ccccc1Cn1n[n+](C)c2c1C(C)(C)[C@@H]1CC[C@]3(C)[C@H](CC[C@@H]4[C@H]5[C@H]6OC[C@@]5(CCC6(C)C)CC[C@]43C)[C@@]1(C)C2.[I-]", "values": [
      {"measurement": "IC50", "setting": "[1]", "value": 1520, "unit": "nM"},
      {"measurement": "IC50", "setting": "[2]", "value": 1040, "unit": "nM"},
      {"measurement": "IC50", "setting": "[3]", "value": 1920, "unit": "nM"},
      {"measurement": "IC50", "setting": "[4]", "value": 1490, "unit": "nM"},
      {"measurement": "IC50", "setting": "[5]", "value": 1590, "unit": "nM"},
      {"measurement": "Activity", "setting": "[6]", "value": "Dose-dependent effect"},
      {"measurement": "Activity", "setting": "[7]", "value": 11.6, "unit": "%"},
      {"measurement": "viability at 1 µM", "setting": "[8]", "value": 76.2, "unit": "%"},
      {"measurement": "Activity", "setting": "[9]", "value": 13.7, "unit": "%"},
      {"measurement": "Activity", "setting": "[10]", "value": 54.16, "unit": "%"},
      {"measurement": "Activity", "setting": "[11]", "value": 40.19, "unit": "%"},
      {"measurement": "Activity", "setting": "[12]", "value": 33.47, "unit": "%"},
      {"measurement": "Activity", "setting": "[13]", "value": "Dose-dependent effect"},
      {"measurement": "Activity", "setting": "[14]", "value": "Active"}
    ]},
    {"smiles": "C[n+]1nn(Cc2c(F)cccc2Cl)c2c1C[C@]1(C)[C@H]3CC[C@@H]4[C@H]5[C@H]6OC[C@@]5(CCC6(C)C)CC[C@@]4(C)[C@]3(C)CC[C@H]1C2(C)C.[I-]", "values": [
      {"measurement": "IC50", "setting": "[1]", "value": 2620, "unit": "nM"},
      {"measurement": "IC50", "setting": "[2]", "value": 2630, "unit": "nM"},
      {"measurement": "IC50", "setting": "[3]", "value": 1120, "unit": "nM"},
      {"measurement": "IC50", "setting": "[4]", "value": 2160, "unit": "nM"},
      {"measurement": "IC50", "setting": "[5]", "value": 2330, "unit": "nM"},
      {"measurement": "Ratio IC50", "setting": "[15]", "value": 2.08},
      {"measurement": "Activity", "setting": "[16]", "value": "Active"},
      {"measurement": "viability at 1 µM", "setting": "[17]", "value": 83, "unit": "%"},
      {"measurement": "Activity", "setting": "[18]", "value": 4.79, "unit": "%"},
      {"measurement": "viability at 2 µM", "setting": "[19]", "value": 64.6, "unit": "%"},
      {"measurement": "Activity", "setting": "[20]", "value": 0.158, "unit": "%"},
      {"measurement": "viability at 1 µM", "setting": "[21]", "value": 80.5, "unit": "%"},
      {"measurement": "Activity", "setting": "[22]", "value": 13.7, "unit": "%"},
      {"measurement": "viability at 2 µM", "setting": "[23]", "value": 60.2, "unit": "%"},
      {"measurement": "Activity", "setting": "[24]", "value": 0.199, "unit": "%"},
      {"measurement": "Activity", "setting": "[25]", "value": 6.13, "unit": "%"},
      {"measurement": "viability at 2 µM", "setting": "[26]", "value": 71.3, "unit": "%"},
      {"measurement": "viability at 4 µM", "setting": "[27]", "value": 15.3, "unit": "%"},
      {"measurement": "Activity", "setting": "[28]", "value": 80.42, "unit": "%"},
      {"measurement": "Activity", "setting": "[29]", "value": 5.39, "unit": "%"},
      {"measurement": "Activity", "setting": "[30]", "value": 9.6, "unit": "%"},
      {"measurement": "Activity", "setting": "[31]", "value": 18.35, "unit": "%"},
      {"measurement": "Activity", "setting": "[32]", "value": "Dose-dependent effect"},
      {"measurement": "Activity", "setting": "[33]", "value": "Dose-dependent effect"}
    ]}
  ]
}
